Results as given in US9403802B2, “Heterocyclic compound and use therefor” (Takeda Pharmaceutical Company Limited, priority 2012, dated 2016).
Read-outs that look alike come from different tables or passages of the source.

Target: T1, human M1 receptor (hCHRM1) (Homo sapiens, UniProt P11229)
T1 construct: expressed in transfected cells; host or cells: CHO-K1
T1 sequence (P11229 1-460): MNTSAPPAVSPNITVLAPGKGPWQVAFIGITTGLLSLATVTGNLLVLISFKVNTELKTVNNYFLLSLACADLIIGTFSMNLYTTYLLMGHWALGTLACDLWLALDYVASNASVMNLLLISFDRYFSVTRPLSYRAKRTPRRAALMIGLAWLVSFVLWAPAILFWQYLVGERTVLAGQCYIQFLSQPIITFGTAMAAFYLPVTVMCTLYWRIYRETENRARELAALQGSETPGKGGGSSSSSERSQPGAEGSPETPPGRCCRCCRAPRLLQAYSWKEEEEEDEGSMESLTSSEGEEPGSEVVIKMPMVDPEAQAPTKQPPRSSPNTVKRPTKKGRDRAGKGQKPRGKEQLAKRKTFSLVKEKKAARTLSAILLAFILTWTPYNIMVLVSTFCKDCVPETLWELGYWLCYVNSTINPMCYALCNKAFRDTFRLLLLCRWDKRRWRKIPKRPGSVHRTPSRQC
Assay: Measurement of cholinergic muscarinic M1 receptor positive allosteric modulator (M1PAM) activity, calcium fluorescence (FLIPRtetra)
Assay type: cell-based
Conditions: for activity (%) at 10 μM: test compound 10 μM with acetylcholine at EC20 (final 0.6 nM), 100% = acetylcholine 1 μM, 0% = DMSO
Method: The activity of a test compound in the presence of acetylcholine at EC20 concentration (final concentration 0.6 nM), which affords an action corresponding to 20% of the maximum activity, was measured as M1PAM activity. The method is as follows. CHO-K1 cells forcibly expressing a human M1 receptor (hCHRM1) were plated on a 384-well black clear bottom plate (BD Falcon) at 5,000 cells/well, and cultured in an incubator at 37° C., 5% CO2 for 1 day. The medium in the cell plate was removed, and assay buffer A (Recording medium (DOJINDO LABORATORIES), 0.1% bovine serum albumin (BSA) (Wako Pure Chemical Industries, Ltd.), 2.5 μg/mL Fluo-4 AM (DOJINDO LABORATORIES), 0.08% Pluronic F127 (DOJINDO LABORATORIES), 1.25 mM probenecid (DOJINDO LABORATORIES)) containing a calcium indicator was added at 30 μL/well. The cells were left standing in the incubator at 37° C., 5% CO2 for 30 min, and further left standing at room temperature for 30 min. A test compound prepared by diluting with assay buffer B (HBSS (Invitrogen), 20 mM HEPES (Invitrogen), 0.1% BSA) containing 2.4 nM acetylcholine was added at 10 μL/well, and the fluorescence was measured by FLIPRtetra (Molecular Devices) for 1 min every 1 second. With the definition that the amount of change in the fluorescence on addition of acetylcholine (final concentration 1 μM) is 100% and that on addition of DMSO instead of a test compound is 0%, the activity (%) of the test compound and the inflection point in the concentration-dependent curve of the test compound were calculated as IP values.

[1] = inflection point of the concentration-dependent curve, with acetylcholine at EC20 (final 0.6 nM), CHO-K1 cells expressing hCHRM1, read-out: IP value

Row | Structure (SMILES) | EC50 | activity (%) at 10 μM (CHO-K1 cells expressing hCHRM1) | EC50 [1]
1 | COc1ccc(Cn2cc(C(=O)N[C@H]3CCCC[C@@H]3O)c(=O)c3c(F)ccc(F)c32)cc1 [Example 27, 5,8-difluoro-N-[(1S,2S)-2-hydroxycyclohexyl]-1-(4-methoxybenzyl)-4-oxo-1,4-dihydroquinoline-3-carboxamide] | 38 nM | 102% | 
2 | NC(=O)c1ccc(Cn2nc(C(N)=O)c(=O)c3ccccc32)cc1 [Example 73, 1-(4-carbamoylbenzyl)-4-oxo-1,4-dihydrocinnoline-3-carboxamide] |  | 96% | 63 nM
3 | COc1ccc(Cn2cc(C(=O)NN)c(=O)c3ccccc32)cc1 [Example 13, 1-(4-methoxybenzyl)-4-oxo-1,4-dihydroquinoline-3-carbohydrazide] |  | 77% | 6100 nM
4 | NC(=O)c1ccc(Cn2cc(C(=O)N[C@H]3CCCC[C@@H]3F)c(=O)c3ccccc32)cc1 (racemic) [Example 88, 1-(4-carbamoylbenzyl)-N-[(1,2-trans)-2-fluorocyclohexyl]-4-oxo-1,4-dihydroquinoline-3-carboxamide] | 12 nM | 101% | 
5 | NC(=O)c1ccc(Cn2cc(C(=O)N[C@H]3CCCC[C@@H]3O)c(=O)c3ccccc32)cc1 [Example 78, 1-(4-carbamoylbenzyl)-N-[(1S,2S)-2-hydroxycyclohexyl]-4-oxo-1,4-dihydroquinoline-3-carboxamide] | 2.2 nM | 86% | 
6 | COc1ccc(Cn2cc(C(=O)NC3CC3)c(=O)c3c(F)ccc(F)c32)cc1 [Example 8, N-cyclopropyl-5,8-difluoro-1-(4-methoxybenzyl)-4-oxo-1,4-dihydroquinoline-3-carboxamide] |  | 100% | 2000 nM
7 | O=C(N[C@H]1CCCC[C@@H]1O)c1cn(Cc2ccc(-n3cccn3)cc2)c2c(F)ccc(F)c2c1=O (racemic) [Example 3, 5,8-difluoro-N-[(1,2-trans)-2-hydroxycyclohexyl]-4-oxo-1-[4-(1H-pyrazol-1-yl)benzyl]-1,4-dihydroquinoline-3-carboxamide] | 8.7 nM | 93% | 
8 | COc1ccc(Cn2cc(C(=O)N[C@H]3CCC[C@@H]3O)c(=O)c3c(F)ccc(F)c32)cc1 (racemic) [Example 25, 5,8-difluoro-N-[(1,2-trans)-2-hydroxycyclopentyl]-1-(4-methoxybenzyl)-4-oxo-1,4-dihydroquinoline-3-carboxamide] |  | 98% | 190 nM
9 | CNC(=O)c1cn(Cc2ccc(OC)cc2)c2c(F)ccc(F)c2c1=O [Example 7, 5,8-difluoro-1-(4-methoxybenzyl)-N-methyl-4-oxo-1,4-dihydroquinoline-3-carboxamide] |  | 71% | 3500 nM
10 | O=C(N[C@H]1CCCC[C@@H]1O)c1nn(Cc2ccc(-n3cccn3)cc2)c2ccccc2c1=O (racemic) [Example 4, N-[(1,2-trans)-2-hydroxycyclohexyl]-4-oxo-1-[4-(1H-pyrazol-1-yl)benzyl]-1,4-dihydrocinnoline-3-carboxamide] |  | 107% | 27 nM
11 | NC(=O)c1ccc(Cn2cc(C(=O)N[C@H]3CCCC[C@@H]3O)c(=O)c3ccccc32)cc1 (racemic) [Example 74, 1-(4-carbamoylbenzyl)-N-[(1,2-trans)-2-hydroxycyclohexyl]-4-oxo-1,4-dihydroquinoline-3-carboxamide] | 5.4 nM | 97% | 
12 | COc1ccc(Cn2cc(C(N)=O)c(=O)c3c(F)ccc(F)c32)cc1 [Example 1, 5,8-difluoro-1-(4-methoxybenzyl)-4-oxo-1,4-dihydroquinoline-3-carboxamide] |  | 90% | 630 nM
13 | COc1ccc(Cn2cc(C(=O)NC3CCCCC3)c(=O)c3c(F)ccc(F)c32)cc1 [Example 14, N-cyclohexyl-5,8-difluoro-1-(4-methoxybenzyl)-4-oxo-1,4-dihydroquinoline-3-carboxamide] |  | 96% | 920 nM
14 | O=C(N[C@H]1CCCC[C@@H]1O)c1cn(Cc2ccc(-c3ccn[nH]3)cc2)c2ccccc2c1=O (racemic) [Example 85, N-[(1,2-trans)-2-hydroxycyclohexyl]-4-oxo-1-[4-(1H-pyrazol-5-yl)benzyl]-1,4-dihydroquinoline-3-carboxamide] | 4.7 nM | 90% | 
15 | Cc1cc(-c2ccc(Cn3cc(C(=O)N[C@H]4CCC[C@@H]4O)c(=O)c4ccccc43)cc2)ccn1 (racemic) [Example 93, N-[(1,2-trans)-2-hydroxycyclopentyl]-1-[4-(2-methylpyridin-4-yl)benzyl]-4-oxo-1,4-dihydroquinoline-3-carboxamide] | 12 nM | 95% | 
16 | CC(F)(F)c1ccc(Cn2cc(C(=O)N[C@H]3CCCC[C@@H]3O)c(=O)c3ccccc32)cc1 (racemic) [Example 82, 1-[4-(1,1-difluoroethyl)-benzyl]-N-[(1,2-trans)-2-hydroxycyclohexyl]-4-oxo-1,4-dihydroquinoline-3-carboxamide] |  | 83% | 170 nM
17 | O=C(N[C@H]1CCCC[C@@H]1O)c1cn(Cc2ccc(-n3cccn3)cc2)c2c(F)cccc2c1=O (racemic) [Example 80, 8-fluoro-N-[(1,2-trans)-2-hydroxycyclohexyl]-4-oxo-1-[4-(1H-pyrazol-1-yl)benzyl]-1,4-dihydroquinoline-3-carboxamide] | 21 nM | 92% | 
18 | COCCNC(=O)c1cn(Cc2ccc(OC)cc2)c2c(F)ccc(F)c2c1=O [Example 20, 5,8-difluoro-1-(4-methoxybenzyl)-N-(2-methoxyethyl)-4-oxo-1,4-dihydroquinoline-3-carboxamide] |  | 72% | 5000 nM
19 | COc1ccc(Cn2nc(C(=O)N[C@@H]3CCCC[C@H]3O)c(=O)c3ccccc32)cc1 [Example 52, N-[(1R,2R)-2-hydroxycyclohexyl]-1-(4-methoxybenzyl)-4-oxo-1,4-dihydrocinnoline-3-carboxamide] |  | 87% | 1900 nM
20 | NC(=O)c1ccc(Cn2nc(C(=O)N[C@H]3CCCC[C@@H]3O)c(=O)c3ccccc32)cc1 (racemic) [Example 75, 1-(4-carbamoylbenzyl)-N-[(1,2-trans)-2-hydroxycyclohexyl]-4-oxo-1,4-dihydrocinnoline-3-carboxamide] |  | 99% | 7.7 nM
21 | COc1ccc(Cn2cc(C(=O)NN3CCCCC3)c(=O)c3c(F)ccc(F)c32)cc1 [Example 21, 5,8-difluoro-1-(4-methoxybenzyl)-4-oxo-N-piperidin-1-yl-1,4-dihydroquinoline-3-carboxamide] |  | 97% | 280 nM
22 | COc1ccc(Cn2nc(C(=O)N[C@H]3CCCC[C@@H]3O)c(=O)c3ccccc32)cc1 [Example 51, N-[(1S,2S)-2-hydroxycyclohexyl]-1-(4-methoxybenzyl)-4-oxo-1,4-dihydrocinnoline-3-carboxamide] |  | 97% | 68 nM
23 | COc1ccc(Cn2cc(C(=O)NCCO)c(=O)c3c(F)ccc(F)c32)cc1 [Example 17, 5,8-difluoro-N-(2-hydroxyethyl)-1-(4-methoxybenzyl)-4-oxo-1,4-dihydroquinoline-3-carboxamide] |  | 69% | 5800 nM
